Experimental data: PubChem BioAssay (NCI)
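All cell lines were grown in 96-well plates and treated with compound for 48 hours. Definition used: TGI = concentration required for complete inhibition of growth.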

Legend:
Experiment in all cases: growth of human tumour cells (NCI), 48 h
ACHN renal = tested on: ACHN renal
DU-145 prostate = tested on: DU-145 prostate
M14 melanoma = tested on: M14 melanoma
MCF7 breast = tested on: MCF7 breast
NCI-H460 lung = tested on: NCI-H460 lung
OVCAR-4 ovarian = tested on: OVCAR-4 ovarian
OVCAR-5 ovarian = tested on: OVCAR-5 ovarian
SK-MEL-28 melanoma = tested on: SK-MEL-28 melanoma
SK-OV-3 ovarian = tested on: SK-OV-3 ovarian
UACC-257 melanoma = tested on: UACC-257 melanoma

SMILES | TGI (ACHN renal) | TGI (DU-145 prostate) | TGI (M14 melanoma) | TGI (MCF7 breast) | TGI (NCI-H460 lung) | TGI (OVCAR-4 ovarian) | TGI (OVCAR-5 ovarian) | TGI (SK-MEL-28 melanoma) | TGI (SK-OV-3 ovarian) | TGI (UACC-257 melanoma)
Cc1cc(C)n(CN(CCCCO)Cn2nc(C)cc2C)n1 | 39.4 µM | 53.6 µM | 33.9 µM | 68.3 µM | > 100 µM | 61.9 µM | 51.1 µM | 39.3 µM | > 100 µM | 80 µM
Cc1ccc2c(ccc3ncc(CNc4ccc(NS(C)(=O)=O)cc4)c32)[nH]1 | > 100 µM | 42.6 µM | 33.1 µM | 44.5 µM | 35.4 µM | 58.9 µM | 53.8 µM | 53.7 µM | 84.2 µM | 34.7 µM
CCOP(=O)(OCC)/C(=C\n1ccc(=O)[nH]c1=S)C(=O)OC | > 100 µM | > 100 µM | > 100 µM | > 100 µM | > 100 µM | > 100 µM | > 100 µM | > 100 µM | > 100 µM | > 100 µM
CCOc1cc2c(cc1O)C=C[C@@H]1[C@@H]2CC[C@]2(C)[C@@H](O)CC[C@@H]12 | > 100 µM | 26.8 µM | 28 µM | > 75.8 µM | 12.5 µM | > 100 µM | > 100 µM | > 100 µM | > 70.2 µM | > 100 µM
C[C@H](CCC(=O)O)[C@H]1CC[C@H]2[C@@H]3[C@H](O)[C@H](O)[C@@H]4C[C@H](O)CC[C@]4(C)[C@H]3CC[C@]12C | > 100 µM | > 100 µM | > 100 µM | > 100 µM | > 100 µM | > 100 µM | > 100 µM | > 100 µM |  | > 100 µM
O=C1C2CCCC2N1Cc1ccccc1 (stereo not drawn) | > 100 µM | > 100 µM | 26.9 µM | > 100 µM | > 100 µM | > 100 µM | > 100 µM |  | > 100 µM | > 100 µM
CCOC(=O)c1ccc(Nc2nc3ccccc3n3cccc23)cc1 | > 100 µM | > 100 µM | > 100 µM | > 100 µM | > 100 µM |  | > 100 µM | > 100 µM | 92.4 µM | > 100 µM
CC(C)CC(C#CCCOC(=O)c1ccccc1)OC(=O)c1ccccc1 (stereo not drawn) | > 10 µM | > 10 µM | > 10 µM | > 10 µM | > 10 µM |  | > 10 µM | > 10 µM | > 10 µM | > 10 µM
CCOC(=O)C1=NN(c2ccc(C)cc2)C2(c3ccccc3)C=C(c3ccccc3)N(C)CCN12 (stereo not drawn) | > 100 µM | > 100 µM | > 100 µM | > 100 µM |  | > 100 µM | > 100 µM | > 100 µM | > 100 µM | > 100 µM
COC(=O)[C@H](Cc1ccccc1)NC(=O)OCC1OC(n2cc(C)c(=O)[nH]c2=O)CC1N=[N+]=[N-] (stereo partly drawn) | > 100 µM | > 100 µM | > 100 µM | > 100 µM | > 100 µM | > 100 µM | > 100 µM |  | > 100 µM | > 100 µM
CC(=O)OCCCCn1nncc1Cn1ccc(=O)n(Cc2cnnn2CCCCOC(C)=O)c1=O | > 100 µM | > 100 µM | > 100 µM | > 100 µM |  | > 100 µM | > 100 µM | > 100 µM | > 100 µM | > 100 µM
O=c1c2ccccc2ncn1COCc1ccccc1 | > 100 µM | > 100 µM | > 100 µM | > 100 µM |  | > 100 µM | > 100 µM | > 100 µM | > 100 µM | > 100 µM
COc1nc2ccc(Cl)c(C(O)c3ccccc3)c2nc1OC (stereo not drawn) | > 100 µM | > 100 µM | 38.8 µM | 87.6 µM | > 100 µM | > 100 µM | > 100 µM | > 100 µM |  | 59.2 µM
COc1cc2c(c(OC)c1OC)-c1ccc(OC)c(=O)cc1C(NC(=O)CCCCCNc1ccc(N=[N+]=[N-])cc1[N+](=O)[O-])CC2 (stereo not drawn) | 24.4 µM | 0.354 µM | 5.44 µM | > 21.6 µM | < 0.0139 µM | 16.2 µM | 31.4 µM | 25 µM | 7.17 µM | 
CSc1c(C(N)=S)c(N)nn1-c1ccccc1 |  | > 100 µM | > 100 µM | > 100 µM | > 100 µM | > 100 µM | > 100 µM | > 100 µM | > 100 µM | > 100 µM
CN(CCO)CCC1COc2ccccc2O1 (stereo not drawn) | > 10 µM | > 10 µM | > 10 µM | > 10 µM | > 10 µM | > 10 µM | > 10 µM | > 10 µM | > 10 µM | 
